As usually defined, the IC50 is the concentration needed to halve the response being measured.

Common to all, as to assay type: biochemical
The target in assay [1] is T1, MMP-9 (Homo sapiens, UniProt P14780).
T1 construct: endogenous in cells; host or cells: HT1080 human fibrosarcoma cells, TPA-stimulated; enzyme purified from conditioned medium
The experiment in a line: Assay for inhibitory activities on MMPs (fluorogenic peptide substrate), MMP-9. The following applies: MMP-9 from HT1080 cells, activated by TPCK-Trypsin; substrate MOCAc-Pro-Leu-Gly-Leu-A2Pr(DNP)-Ala-Arg-NH2. The text has this: MMP-9 was isolated and purified by procedures described in as follows: Yasunori Okada, Yukio Gonoji, Katsumi Naka, Katsuro Tomita, Isao Nakanishi, Kazushi Iwata, Kyoko Yamashita, and Taro Hayakawa: Matrix metalloproteinase 9 (92-kDa gelatinase/type IV collagenase) from HT1080 human fibrosarcoma cells. Purification and activation of the precursor and enzymic properties J. Biol. Chem., 1992, 267 21712-21719, in combination with others: 1)Yasunori Okada, Tatsuhisa Morodomi, Jan J, Enghild, ko Suzuki, Atsushi Yasui, Isao Nakanishi, Guy Salvesen and Hideaki Nagase: Matrix metalloproteinase 2 from human rheumatoid synovial fibroblasts. Purification and activation of the precursor and enzymic properties. Eur. J. Biochem. 1990, 194 721-730; 2)Robin V Ward, Rosalind M Hembry, John J Reynolds and Gillian Murphy: The purification of tissue inhibitor of metalloproteinase-2 from its 72 kDa progelatinase complex. Biochem. J. 1991 278 179-187. In detail, human fibrosarcoma ATCC HT1080 cell line was cultured to confluent in Dulbecco's Modified Medium (DMEM) containing 10% fetal-calf serum at 37° C. for 48 hours. Subsequently, the medium of confluent culture was changed to serum-free DMEM medium. To obtain MMP-9, Phorbol-12-myristate-13-acetate (TPA) must be added to this serum-free DMEM medium at a concentration of 50 ng/ml. The TPA treated medium was centrifuged at 3000 rpm for 15 min and the supernatant was concentrated to 450 ml by a Toyo-Roshi UP-20 apparatus with an ultrafiltration membrane. Then, proMMP-9 in this concentrated solution was purified by using columns of Gelatin-Sepharose and Concanavalin A-Sepharose. The pool containing proMMP-9 was dialyzed, concentrated (Toyo-Roshi UP-20) and applied to columns of Sephacryl S-200 and Green A matrix for the separation from TIMPs. The obtained proMMP-9 fraction was activated by TPCK-Trypsin (Final conc. 3 μg/501 μl React Mix.).
(§1) The enzymatic activity on MMPs was analyzed by the method described in “C. Graham Knight, Frances Willenbrock and Gillian Murphy: A novel coumarin-labelled peptide for sensitive continuous assays of the matrix metalloproteinases: FEBS LETT., 296, (1992), 263-266”. The substrate MOCAc-Pro-Leu-Gly-Leu-A2Pr(DNP)-Ala-Arg-NH2 was purchased from Peptide Institute, Inc., Osaka, Japan. The measurement of the inhibitory activities (IC50) was carried out by the following four methods;
(§2) (A) Reaction with substrate, enzyme (MMPs) and inhibitor
(§3) (B) Reaction with substrate and inhibitor, without enzyme
(§4) (C) Reaction with substrate and enzyme (MMPs), without inhibitor
(§5) (D) Reaction with substrate only
(§6) IC50 values were calculated by using the following formula and each fluorescence values of above four methods (A to D). % inhibition={1−(A−B)/(C−D)}×100 IC50 means the concentration required to inhibit 50% of the enzyme activity.

The target in assay [2] is T2, MMP-13 (Homo sapiens, UniProt P45452).
T2 construct: catalytic domain (^104Tyr˜^267Gly) was amplified with RT-PCR; His-tag; enterokinase digestion-site; made in house; host or cells: Escherichia coli
The experiment in a line: Assay for inhibitory activities on MMPs (fluorogenic peptide substrate), MMP-13. The following applies: catalytic domain 104Tyr-267Gly; substrate MOCAc-Pro-Leu-Gly-Leu-A2Pr(DNP)-Ala-Arg-NH2. The protocol: (§7) In regard to MMP-13, mRNA was prepared from carcinoma cell SW1353 derived from human cartilage stimulate by IL-1, TNF and catalytic domain (^104Tyr˜^267Gly) was amplified with RT-PCR. This was cloned in Escherichia. coli expression vector pTrc99AHE inserted with His-tag sequence and enterokinase digestion-site, induced and expressed by IPTG (Isopropyl-β-D-thiogalactopyranoside) and expressed in a insoluble fraction. Isolation of MMP-13 from an insoluble fraction was carried out by dissolving in modifier (6M urea) by a usual method and purification with metal chelate chromatography (Ni Chelateing Sepharose). And then removing modifier (6M urea) with dialyze and refolding of the enzyme spontaneously gave activated MMP-13.
as §1, §2, §3, §4, §5, §6

The target of assay [3] is T3, MMP-8 (Homo sapiens, UniProt P22894).
T3 construct: catalytic domain (^99Phe˜^262Gly) was amplified with PCR; His-tag; enterokinase digestion-site; made in house; host or cells: Escherichia coli
The experiment in a line: Assay for inhibitory activities on MMPs (fluorogenic peptide substrate), MMP-8. The following applies: catalytic domain 99Phe-262Gly; substrate MOCAc-Pro-Leu-Gly-Leu-A2Pr(DNP)-Ala-Arg-NH2.
Excerpt: In regard to MMP-8, catalytic domain (^99Phe˜^262Gly) was amplified with PCR using commercial available Human Bone Marrow cDNA. This was cloned in Escherichia. coli expression vector pTrc99AHE inserted with His-tag sequence and enterokinase digestion-site, induced and expressed by IPTG (Isopropyl-β-D-thiogalactopyranoside) and expressed in a insoluble fraction (Thau F. Ho, M. Walid Qoronfleh, Robert C. Wahl, Trica A. Pulvino, Karen J. Vavra, Joe Falvo, Tracey M. Banks, Patricia G. Brake and Richard B. Ciccarelli: Gene expression, purification and characterization of recombinant human neutrophil collagenase. Gene 146, (1994) 297-301, Prepared by the a improved method of this material). Isolation of MMP-8 from an insoluble fraction was carried out by dissolving in modifier (6M urea) by a usual method and purification with metal chelate chromatography. And then removing modifier (6M urea) with dialysis and refolding of the enzyme spontaneously gave activated MMP-8.
as §1, §2, §3, §4, §5, §6

Assay [4] deals with T4, MMP-2 (Homo sapiens, UniProt P08253).
T4 construct: purchased Calbiochem-Novabiochem International, Inc
T4 sequence (P08253 110-660): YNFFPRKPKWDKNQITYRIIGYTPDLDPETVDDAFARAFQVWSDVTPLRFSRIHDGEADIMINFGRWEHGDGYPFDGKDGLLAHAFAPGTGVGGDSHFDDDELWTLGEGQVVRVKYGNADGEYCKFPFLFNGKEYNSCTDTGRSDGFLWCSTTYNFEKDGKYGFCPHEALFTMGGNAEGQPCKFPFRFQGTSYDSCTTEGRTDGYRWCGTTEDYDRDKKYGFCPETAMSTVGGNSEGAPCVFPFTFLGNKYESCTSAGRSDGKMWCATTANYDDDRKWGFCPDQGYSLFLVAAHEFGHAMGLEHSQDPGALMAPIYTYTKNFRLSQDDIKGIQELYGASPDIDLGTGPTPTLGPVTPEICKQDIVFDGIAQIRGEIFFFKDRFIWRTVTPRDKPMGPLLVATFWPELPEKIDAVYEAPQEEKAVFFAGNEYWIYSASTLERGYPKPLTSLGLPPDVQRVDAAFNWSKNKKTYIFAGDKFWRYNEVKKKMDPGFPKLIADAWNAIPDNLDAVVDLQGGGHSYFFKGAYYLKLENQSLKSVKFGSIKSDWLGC
The experiment in a line: Assay for inhibitory activities on MMPs (fluorogenic peptide substrate), MMP-2. The following applies: purchased MMP-2; substrate MOCAc-Pro-Leu-Gly-Leu-A2Pr(DNP)-Ala-Arg-NH2. The protocol: MMP-2 was purchased from Calbiochem-Novabiochem International, Inc.
as §1, §2, §3, §4, §5, §6

For assay [5], the target named is T5, MMP-12 (Homo sapiens, UniProt P39900).
T5 construct: catalytic domain(^100Phe˜^263Gly) was amplified with RT-PCR; His-tag; enterokinase digestion-site; made in house; host or cells: Escherichia coli
The experiment in a line: Assay for inhibitory activities on MMPs (fluorogenic peptide substrate), MMP-12. The conditions noted are these: catalytic domain 100Phe-263Gly; substrate MOCAc-Pro-Leu-Gly-Leu-A2Pr(DNP)-Ala-Arg-NH2. The protocol:
as §7, with “MMP-12,” for “MMP-13, mRNA was prepared from carcinoma cell SW1353 derived from human cartilage stimulate by IL-1, TNF and”, “domain(^100Phe˜^263Gly)” for “domain (^104Tyr˜^267Gly)”, “RT-PCR from Human Placenta Total RNA.” for “RT-PCR.”, “MMP-12” for “MMP-13”, “dialysis” for “dialyze”, “MMP-12.” for “MMP-13.”
as §1, §2, §3, §4, §5, §6

T1 sequence (P14780 107-707 limits assumed): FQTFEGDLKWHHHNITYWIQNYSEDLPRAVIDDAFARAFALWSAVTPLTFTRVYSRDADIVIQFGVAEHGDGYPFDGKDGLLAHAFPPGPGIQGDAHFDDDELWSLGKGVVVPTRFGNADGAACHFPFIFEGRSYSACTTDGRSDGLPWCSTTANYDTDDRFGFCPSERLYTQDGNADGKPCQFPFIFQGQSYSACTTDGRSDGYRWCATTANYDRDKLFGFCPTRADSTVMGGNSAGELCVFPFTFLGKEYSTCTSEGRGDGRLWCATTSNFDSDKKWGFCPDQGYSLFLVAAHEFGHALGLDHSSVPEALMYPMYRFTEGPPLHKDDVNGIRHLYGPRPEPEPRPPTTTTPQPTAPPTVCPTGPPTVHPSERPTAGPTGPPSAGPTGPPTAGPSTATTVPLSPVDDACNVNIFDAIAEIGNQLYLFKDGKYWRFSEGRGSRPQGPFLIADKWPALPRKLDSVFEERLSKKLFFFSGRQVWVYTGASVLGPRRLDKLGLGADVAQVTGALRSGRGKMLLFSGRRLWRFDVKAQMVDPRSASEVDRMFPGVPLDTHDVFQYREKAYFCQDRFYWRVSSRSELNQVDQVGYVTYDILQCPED
T5 sequence (P39900 100-263): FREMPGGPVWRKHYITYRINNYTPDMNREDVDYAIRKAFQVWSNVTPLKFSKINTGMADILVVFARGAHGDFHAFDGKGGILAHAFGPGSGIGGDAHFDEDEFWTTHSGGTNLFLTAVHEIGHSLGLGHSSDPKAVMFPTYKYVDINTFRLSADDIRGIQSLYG
T3 sequence (P22894 99-262): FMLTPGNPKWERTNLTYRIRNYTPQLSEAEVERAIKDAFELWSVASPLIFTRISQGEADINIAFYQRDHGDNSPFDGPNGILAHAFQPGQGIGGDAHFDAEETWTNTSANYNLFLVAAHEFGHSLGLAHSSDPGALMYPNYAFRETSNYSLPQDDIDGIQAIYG

For `CC(C)[C@@H](NS(=O)(=O)c1ccc(-c2ncc(-c3ccc(F)cc3)o2)cc1)C(=O)O` [Compound A-25], the IC50 in assay [1] was found to be 179 nM; in assay [2], 140 nM; in assay [3], 75.9 nM; in assay [4], 12.2 nM; in assay [5] it was 7.48 nM.

Take `C[C@@H](NS(=O)(=O)c1ccc(-c2ncc(-c3ccc4ccccc4c3)s2)cc1)C(=O)O` [Compound B-53]: the IC50 in assay [1] is 173 nM; in assay [2] it was 12.4 nM; in assay [3], 373 nM; in assay [4], 2.41 nM; in assay [5], 2.54 nM.

Take `CC(C)[C@@H](NS(=O)(=O)c1ccc(-c2ncc(-c3ccccc3)s2)cc1)C(=O)O` [Compound B-2]: the half-inhibitory concentration (IC50) in assay [1] came out at 13.8 nM; in assay [2] it was 14.5 nM; in assay [3], 15.1 nM; in assay [4], 1.83 nM; in assay [5] it was 2.92 nM.

As to `C[C@H](NS(=O)(=O)c1ccc(-c2ncc(-c3ccc(Cl)cc3)s2)cc1)C(=O)O` [Compound B-26], the IC50 in assay [1] came to 54.4 nM; in assay [2], 14.1 nM; in assay [3], 42.5 nM; in assay [4], 8.3 nM; in assay [5], 1.24 nM.

For `CC(C)[C@H](NS(=O)(=O)c1ccc(-c2ncc(-c3ccc(Cl)cc3)s2)cc1)C(=O)O` [Compound B-5], the concentration for half-maximal inhibition (IC50) in assay [1] stood at 14.8 nM; in assay [2], 6.18 nM; in assay [3], 25.7 nM; in assay [4] it was 5.24 nM; in assay [5], 1.33 nM.

For the molecule `COc1ccc(-c2cnc(-c3ccc(S(=O)(=O)N[C@@H](C)C(=O)O)cc3)s2)cc1` [Compound B-24], the 50% inhibitory concentration (IC50) in assay [1] came out at 109 nM; in assay [2], 8.4 nM; in assay [3], 18.5 nM; in assay [4], 6.3 nM; in assay [5], 1.5 nM.

Consider `CC(C)[C@H](NS(=O)(=O)c1ccc(-c2ncc(-c3ccccc3)o2)cc1)C(=O)O` [Compound A-22], for which the 50% inhibitory concentration (IC50) in assay [1] is 144 nM; in assay [2] it was 5.31 nM; in assay [3], 53.3 nM; in assay [4], 7.84 nM; in assay [5] it was 2.69 nM.

With `COc1ccc(-c2cnc(-c3ccc(S(=O)(=O)N[C@H](CC(C)C)C(=O)O)cc3)o2)cc1` [Compound A-28], the IC50 in assay [1] was 483 nM; in assay [2], 44.8 nM; in assay [3], 26.1 nM; in assay [4] it was 10.9 nM; in assay [5], 5.05 nM.

`C[C@@H](NS(=O)(=O)c1ccc(-c2ncc(-c3ccc(Br)cc3)s2)cc1)C(=O)O` [Compound B-29]: the IC50 turned out to be 5.82 nM in assay [1]; 2.6 nM in assay [2]; 45.2 nM in assay [3]; 0.313 nM in assay [4]; 0.47 nM in assay [5].

On to `COc1ccc(-c2cnc(-c3ccc(S(=O)(=O)N[C@H](CC(C)C)C(=O)O)cc3)s2)cc1` [Compound B-34], for which the half-inhibitory concentration (IC50) was found to be 53.6 nM in assay [1]; 6.82 nM in assay [2]; 24.9 nM in assay [3]; 1.63 nM in assay [4]; 3.35 nM in assay [5].

`C[C@@H](NS(=O)(=O)c1ccc(-c2ncc(-c3ccc(Br)cc3)o2)cc1)C(=O)O` [Compound A-10]: the IC50 is 135 nM in assay [1]; 59.2 nM in assay [2]; 97.4 nM in assay [3]; 5.46 nM in assay [4]; 2.42 nM in assay [5].

On to `O=C(O)[C@@H](Cc1ccccc1)NS(=O)(=O)c1ccc(-c2ncc(-c3ccc(F)cc3)s2)cc1` [Compound B-17], for which the IC50 in assay [1] was determined as 22.6 nM; in assay [2], 12.1 nM; in assay [3], 22.4 nM; in assay [4], 2.09 nM; in assay [5], 3.21 nM.

As to `C[C@@H](NS(=O)(=O)c1ccc(-c2ncc(-c3ccc4ccccc4c3)o2)cc1)C(=O)O` [Compound A-46], the IC50 was found to be 157 nM in assay [1]; 19 nM in assay [2]; 279 nM in assay [3]; 7.16 nM in assay [4]; 2.25 nM in assay [5].

Regarding `COc1ccc(-c2cnc(-c3ccc(S(=O)(=O)N[C@@H](C)C(=O)O)cc3)o2)cc1` [Compound A-9], the concentration for half-maximal inhibition (IC50) in assay [1] was 9320 nM; in assay [2], 433 nM; in assay [3] it was 266 nM; in assay [4], 287 nM; in assay [5], 27.3 nM.

`CC(C)C[C@@H](NS(=O)(=O)c1ccc(-c2ncc(-c3ccc(Cl)cc3)o2)cc1)C(=O)O` [Compound A-30]: the IC50 in assay [1] was 502 nM; in assay [2], 226 nM; in assay [3] it was 320 nM; in assay [4], 44.4 nM; in assay [5], 11.4 nM.
